Results taken from patent US9180118B2, “Thiadiazolidinone derivatives” (University of Rochester, priority 2006, dated 2015).
Where “and” joins values, the source holds several entries; their conditions need not be identical. Equal entries are not always repeated.

How the values were obtained:
CD34+CD10− ALL cells = test: Viability of CD34+CD10− cells from ALL specimens; assay type: cell-based; settings: Homo sapiens, 24 h
AML progenitor cells = test: Methylcellulose colony assay, AML; assay type: cell-based, human; settings: 20 μM TDZD-8, 18 hours before plating, n=11
Experimental: Cells were then plated at 50,000 cells/ml in Methocult™ GF H4534 (1% methylcellulose in IMDM, 30% FBS, 1% BSA, 10^−4M 2-mercaptoethanol, 2 mM L-glutamine, 50 ng/ml rh stem cell factor, 10 ng/ml rh GM-CSF, 10 ng/ml rh IL-3-Stem Cell Technologies, Vancouver, B.C.) supplemented with 3 units/ml of erythropoietin and 50 ng/ml G-CSF (R&D Systems, Minneapolis, Minn.). Colonies were scored after 10-14 days of culture.

CK-II = CK-II (Homo sapiens, UniProt P68400); settings: reported; cited from earlier work
[1] = test system: primary blast crisis CML (bcCML) specimens; test: Viability of primary bcCML specimens, Annexin V/7-AAD; assay type: cell-based; settings: Homo sapiens, 24 h; read-out: mean viability relative to untreated controls
PRKD1 (PKC mu) = PRKD1 (PKC mu) (Homo sapiens, UniProt Q15139); test: Kinase assay; assay type: biochemical
Experimental: (§1) Kinase Assays: Single point and titration assays are performed using protocols (or essentially using protocols) know in the art for kinase activity profiling against a battery of kinase targets, including, for example, those specifically delineated herein. Such assays include, for example, those available from commercial sources, contract research laboratories, and the like.

[2] = test system: phospho-FLT3 in CD34+ AML cells; test: Phospho-FLT3 flow cytometry, CD34+ population of primary AML; assay type: cell-based, human; settings: 30 minutes after addition of drug
CD34+CD38− bcCML cells = assay type: cell-based; settings: Homo sapiens, 24 h
primary ALL specimens = test: Viability of primary ALL specimens, Annexin V/7-AAD; assay type: cell-based; settings: Homo sapiens, 24 h; read-out: mean viability relative to untreated controls
primary AML specimens = test: Viability of primary AML specimens, Annexin V/7-AAD flow cytometry; assay type: cell-based, human
Experimental: (§2) The cells were isolated and processed as described. […] All drug treatments were performed in triplicate. […] Total viable cell numbers were determined using a flow cytometric apoptosis assay as described. Briefly, after 18 h of treatment, specimens were labeled with anti-CD34-PE (Becton Dickinson, San Jose, Calif.) for 20 minutes. […] The total number of events collected was 100,000. The percent viable cells was defined as AnnexinV^neg/7-AAD^neg cells on total (ungated) cells and on gates set for CD34^+ populations. • [1] Jordan, C. T., et al., The interleukin-3 receptor alpha chain is a unique marker for human acute myelogenous leukemia stem cells. Leukemia, 2000. 14(10): p. […] Lansdorp, P. M. and W. Dragowska, Long-term erythropoiesis from constant numbers of CD34+ cells in serum-free cultures initiated with highly purified progenitor cells from human bone marrow. […] Guzman, M. L., et al., Nuclear factor-kappaB is constitutively activated in primitive human acute myelogenous leukemia cells. […] 98(8): p.

All other tumor lines = test: NCI-60 screen, other lines; assay type: cell-based; settings: Homo sapiens; NCI-60, non-hematologic lines; read-out: concentration up to which no growth inhibition was shown
From the text: In contrast the cell viability for normal specimens was 79.5% (n=13).

PKC = settings: reported; cited from earlier work
FLT3 = FLT3 (Homo sapiens, UniProt P36888); test: Kinase assay (single point and titration); assay type: biochemical
Experimental: as §1

PRKCI (PKC iota) = PRKCI (PKC iota) (Homo sapiens, UniProt P41743); test: Kinase assay (single point and titration); assay type: biochemical
Experimental: as §1

PRKCB1 (PKC beta I) = PRKCB1 (PKC beta I) (Homo sapiens, UniProt P05771); test: Kinase assay (single point and titration); assay type: biochemical
Experimental: as §1

PRKCD (PKC delta) = PRKCD (PKC delta) (Homo sapiens, UniProt Q05655); test: Kinase assay (single point and titration); assay type: biochemical
Experimental: as §1

PICA = PICA (Homo sapiens, UniProt P17612); settings: reported; cited from earlier work
[3] = test system: normal CB cells (hematopoietic stem cells); test: NOD/SCID xenotransplant engraftment of normal CB cells treated in culture; assay type: in vivo, human; settings: cells cultured 18 hours with 20 μM TDZD-8; n=3; NOD/SCID mice
Experimental: NOD/SCID (NOD.CB17-prdkdc scid/J) mice (Jackson Laboratories, Bar Harbor, Me.) were sub-lethally irradiated with 270 rad using a RadSource™ X-ray irradiator the day before transplantation. Cells to be assayed (AML or normal umbilical cord blood—CB) were injected via tail vein (5-10 million cells) in a final volume of 0.2 ml of PBS with 0.5% FBS. After 6-8 weeks, animals were sacrificed and BM was isolated.

[4] = test system: normal specimens (BM, CB, MPB); test: Viability of normal specimens (BM, CB, MPB), Annexin V/7-AAD; assay type: cell-based, human; settings: normal specimens
Experimental: as §2

[5] = as above; assay type: cell-based, human; settings: human; read-out: cell viability relative to untreated controls
Experimental: as §2

CDK1/cyclin B = CDK1/cyclin B (Homo sapiens, UniProt P06493); settings: reported; cited from earlier work
normal specimens = test: Free thiol analysis by mBBr labeling, normal specimens; assay type: cell-based, human; settings: 20 μM TDZD-8
Experimental: C. […] Intracellular thiol levels were assessed by flow cytometry after labeling with 50 μM monobromobimane (molecular probes).

[6] = titration, read-out: in vitro IC50

PRKCB1 (PKC beta I), sequence (P05771 whole entry): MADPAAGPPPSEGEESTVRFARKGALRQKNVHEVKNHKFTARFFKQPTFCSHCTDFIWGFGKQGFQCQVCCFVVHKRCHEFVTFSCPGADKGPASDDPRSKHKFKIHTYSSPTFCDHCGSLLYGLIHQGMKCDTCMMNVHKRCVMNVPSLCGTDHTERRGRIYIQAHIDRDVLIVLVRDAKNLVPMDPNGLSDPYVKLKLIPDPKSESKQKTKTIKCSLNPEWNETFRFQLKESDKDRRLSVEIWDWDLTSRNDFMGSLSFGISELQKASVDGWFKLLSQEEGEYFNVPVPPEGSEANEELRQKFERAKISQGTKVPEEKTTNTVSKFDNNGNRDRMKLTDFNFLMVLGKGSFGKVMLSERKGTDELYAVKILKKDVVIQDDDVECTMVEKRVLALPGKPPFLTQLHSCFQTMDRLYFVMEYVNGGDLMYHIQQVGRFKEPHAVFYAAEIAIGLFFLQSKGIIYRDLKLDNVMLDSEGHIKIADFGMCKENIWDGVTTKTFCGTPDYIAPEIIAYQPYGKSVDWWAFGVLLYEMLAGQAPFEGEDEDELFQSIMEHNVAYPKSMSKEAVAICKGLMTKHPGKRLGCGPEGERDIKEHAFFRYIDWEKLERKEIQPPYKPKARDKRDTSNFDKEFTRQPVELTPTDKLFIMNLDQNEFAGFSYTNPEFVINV
PRKCI (PKC iota), sequence (P41743 whole entry): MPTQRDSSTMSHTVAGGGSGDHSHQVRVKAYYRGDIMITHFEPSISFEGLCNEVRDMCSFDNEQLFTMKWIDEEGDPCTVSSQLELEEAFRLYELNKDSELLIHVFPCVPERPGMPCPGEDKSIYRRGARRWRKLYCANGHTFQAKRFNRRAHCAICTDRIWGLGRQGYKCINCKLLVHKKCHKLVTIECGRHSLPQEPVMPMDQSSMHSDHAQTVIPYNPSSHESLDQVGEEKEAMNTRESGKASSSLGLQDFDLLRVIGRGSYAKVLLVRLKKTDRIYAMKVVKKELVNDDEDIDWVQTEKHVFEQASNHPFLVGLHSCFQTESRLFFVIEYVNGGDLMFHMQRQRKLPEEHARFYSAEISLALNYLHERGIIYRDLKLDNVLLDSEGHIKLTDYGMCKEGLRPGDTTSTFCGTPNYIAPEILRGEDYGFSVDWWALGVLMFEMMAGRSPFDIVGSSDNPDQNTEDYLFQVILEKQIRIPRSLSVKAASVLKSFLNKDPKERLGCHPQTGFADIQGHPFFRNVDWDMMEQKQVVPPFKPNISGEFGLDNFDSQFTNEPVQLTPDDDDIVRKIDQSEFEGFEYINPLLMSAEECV
PRKCD (PKC delta), sequence (Q05655 whole entry): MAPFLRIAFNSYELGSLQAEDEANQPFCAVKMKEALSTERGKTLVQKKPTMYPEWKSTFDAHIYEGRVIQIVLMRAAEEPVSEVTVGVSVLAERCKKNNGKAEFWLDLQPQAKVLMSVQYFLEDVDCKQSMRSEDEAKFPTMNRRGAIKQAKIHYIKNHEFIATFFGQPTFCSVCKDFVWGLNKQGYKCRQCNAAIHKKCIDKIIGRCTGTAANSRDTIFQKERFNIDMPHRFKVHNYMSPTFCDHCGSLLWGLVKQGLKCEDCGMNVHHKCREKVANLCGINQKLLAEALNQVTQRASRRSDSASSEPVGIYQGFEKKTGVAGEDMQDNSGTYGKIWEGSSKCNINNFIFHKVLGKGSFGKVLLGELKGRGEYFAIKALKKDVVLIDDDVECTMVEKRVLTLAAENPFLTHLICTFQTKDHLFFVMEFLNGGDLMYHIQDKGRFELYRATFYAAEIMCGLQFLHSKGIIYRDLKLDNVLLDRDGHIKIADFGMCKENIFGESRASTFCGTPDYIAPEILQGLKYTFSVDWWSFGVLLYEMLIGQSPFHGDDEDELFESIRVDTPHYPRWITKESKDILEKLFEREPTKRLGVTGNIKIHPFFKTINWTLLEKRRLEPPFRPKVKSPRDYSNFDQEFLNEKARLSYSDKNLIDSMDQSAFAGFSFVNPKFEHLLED
FLT3, sequence (P36888 27-993): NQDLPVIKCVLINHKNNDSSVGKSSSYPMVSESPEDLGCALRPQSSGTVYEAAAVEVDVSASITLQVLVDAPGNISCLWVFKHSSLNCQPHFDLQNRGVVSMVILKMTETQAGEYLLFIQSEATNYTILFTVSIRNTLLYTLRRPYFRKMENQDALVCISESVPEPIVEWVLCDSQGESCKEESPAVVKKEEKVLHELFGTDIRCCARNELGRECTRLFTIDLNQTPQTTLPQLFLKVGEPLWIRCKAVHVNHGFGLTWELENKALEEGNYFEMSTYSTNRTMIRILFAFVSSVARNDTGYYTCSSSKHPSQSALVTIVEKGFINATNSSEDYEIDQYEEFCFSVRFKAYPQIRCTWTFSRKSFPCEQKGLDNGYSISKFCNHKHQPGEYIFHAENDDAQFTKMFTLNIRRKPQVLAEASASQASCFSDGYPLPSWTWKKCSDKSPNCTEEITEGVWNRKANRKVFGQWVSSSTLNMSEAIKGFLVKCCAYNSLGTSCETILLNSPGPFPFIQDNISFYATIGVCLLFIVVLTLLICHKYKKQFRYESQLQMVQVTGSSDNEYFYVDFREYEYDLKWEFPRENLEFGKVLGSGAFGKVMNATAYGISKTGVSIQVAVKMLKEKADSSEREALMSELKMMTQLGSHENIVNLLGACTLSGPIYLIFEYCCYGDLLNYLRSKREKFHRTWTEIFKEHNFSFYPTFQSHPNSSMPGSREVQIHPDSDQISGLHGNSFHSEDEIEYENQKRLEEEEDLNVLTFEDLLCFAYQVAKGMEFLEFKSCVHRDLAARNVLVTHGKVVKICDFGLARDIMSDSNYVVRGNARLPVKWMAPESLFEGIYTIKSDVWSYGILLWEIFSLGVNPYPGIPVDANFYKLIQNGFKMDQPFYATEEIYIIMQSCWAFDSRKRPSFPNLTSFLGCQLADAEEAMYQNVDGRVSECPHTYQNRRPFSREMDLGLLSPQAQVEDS
CK-II, sequence (P68400 whole entry): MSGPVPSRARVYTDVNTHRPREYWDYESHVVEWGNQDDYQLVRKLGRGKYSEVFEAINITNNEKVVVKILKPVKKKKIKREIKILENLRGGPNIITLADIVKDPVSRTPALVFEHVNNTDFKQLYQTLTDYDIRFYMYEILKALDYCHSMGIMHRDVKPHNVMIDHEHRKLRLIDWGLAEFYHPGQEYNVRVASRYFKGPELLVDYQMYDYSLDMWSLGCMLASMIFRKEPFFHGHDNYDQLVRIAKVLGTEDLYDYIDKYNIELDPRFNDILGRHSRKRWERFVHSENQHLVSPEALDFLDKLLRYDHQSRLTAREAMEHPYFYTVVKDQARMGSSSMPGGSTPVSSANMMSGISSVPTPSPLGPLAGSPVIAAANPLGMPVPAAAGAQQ
PRKD1 (PKC mu), sequence (Q15139 whole entry): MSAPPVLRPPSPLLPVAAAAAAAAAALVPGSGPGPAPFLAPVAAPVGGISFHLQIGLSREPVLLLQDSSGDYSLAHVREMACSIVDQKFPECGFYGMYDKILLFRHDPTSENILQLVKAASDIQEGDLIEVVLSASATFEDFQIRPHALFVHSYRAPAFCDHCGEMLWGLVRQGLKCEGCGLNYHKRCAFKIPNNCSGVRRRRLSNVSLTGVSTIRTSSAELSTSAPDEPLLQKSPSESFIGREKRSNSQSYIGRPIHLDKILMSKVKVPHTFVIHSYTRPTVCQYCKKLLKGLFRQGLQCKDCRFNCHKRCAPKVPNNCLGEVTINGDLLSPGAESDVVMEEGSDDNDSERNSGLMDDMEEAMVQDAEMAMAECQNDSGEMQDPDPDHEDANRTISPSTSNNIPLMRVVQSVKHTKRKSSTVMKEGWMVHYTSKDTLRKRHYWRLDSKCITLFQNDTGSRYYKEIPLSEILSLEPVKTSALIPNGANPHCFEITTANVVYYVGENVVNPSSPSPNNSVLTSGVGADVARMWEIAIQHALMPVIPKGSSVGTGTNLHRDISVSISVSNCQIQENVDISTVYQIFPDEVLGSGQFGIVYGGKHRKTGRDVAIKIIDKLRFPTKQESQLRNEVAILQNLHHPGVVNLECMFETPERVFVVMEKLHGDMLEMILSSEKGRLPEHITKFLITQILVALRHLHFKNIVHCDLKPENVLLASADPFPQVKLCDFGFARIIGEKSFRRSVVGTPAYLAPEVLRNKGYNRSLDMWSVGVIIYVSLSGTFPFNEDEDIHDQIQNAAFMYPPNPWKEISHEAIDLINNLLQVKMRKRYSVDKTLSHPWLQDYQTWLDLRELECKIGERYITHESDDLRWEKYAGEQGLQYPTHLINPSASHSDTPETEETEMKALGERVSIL
CDK1/cyclin B, sequence (P06493 whole entry, species assumed): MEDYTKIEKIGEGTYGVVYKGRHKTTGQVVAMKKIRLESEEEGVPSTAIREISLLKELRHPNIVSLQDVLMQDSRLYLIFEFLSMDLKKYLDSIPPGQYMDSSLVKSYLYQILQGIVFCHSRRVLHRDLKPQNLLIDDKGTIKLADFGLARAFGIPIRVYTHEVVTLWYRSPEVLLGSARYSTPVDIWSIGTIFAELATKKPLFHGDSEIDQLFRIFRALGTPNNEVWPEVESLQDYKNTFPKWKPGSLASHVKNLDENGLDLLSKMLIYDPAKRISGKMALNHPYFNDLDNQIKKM
CDK1/cyclin B, sequence (P14635 whole entry partner, species assumed): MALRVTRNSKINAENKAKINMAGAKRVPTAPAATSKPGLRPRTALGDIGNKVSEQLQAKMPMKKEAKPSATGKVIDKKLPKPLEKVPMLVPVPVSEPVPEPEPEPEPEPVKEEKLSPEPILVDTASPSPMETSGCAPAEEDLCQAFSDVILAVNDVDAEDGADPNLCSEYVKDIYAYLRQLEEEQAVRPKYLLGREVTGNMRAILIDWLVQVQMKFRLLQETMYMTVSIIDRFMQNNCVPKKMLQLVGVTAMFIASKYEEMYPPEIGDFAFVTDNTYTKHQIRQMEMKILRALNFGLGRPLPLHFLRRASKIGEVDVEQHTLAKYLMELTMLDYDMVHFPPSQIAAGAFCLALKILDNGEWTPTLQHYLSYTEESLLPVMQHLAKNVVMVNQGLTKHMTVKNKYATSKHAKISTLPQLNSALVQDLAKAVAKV

**Q.** Which viability at 20 µM (CD34+CD10− ALL cells) does the source give for `Cn1sc(=O)n(Cc2ccccc2)c1=O` [TDZD-8, 4-benzyl-2-methyl-1,2,4-thiadiazolidine-3,5-dione] here?
**A.** 22.3%

**Q.** What about the “CFU, normalized to untreated controls” value (AML progenitor cells) of the same molecule?
**A.** 7.3%

**Q.** What about the IC50 (CK-II) of the same molecule?
**A.** > 100 µM

**Q.** What about the viability at 20 µM [1] of the same molecule?
**A.** 21.6%

**Q.** What about the inhibition at 20 µM (PRKD1 (PKC mu)) of the same molecule?
**A.** 97%

**Q.** What about the “inhibition of FLT3 phosphorylation” value [2] of the same molecule?
**A.** ~30% and 31%

**Q.** What about the viability at 20 µM (CD34+CD38− bcCML cells) of the same molecule?
**A.** 2.8%

**Q.** And the viability at 20 µM (primary ALL specimens)?
**A.** 12.4%

**Q.** What about the viability at 20 µM (primary AML specimens; Homo sapiens, 24 h, read-out: mean viability relative to untreated controls) of the same molecule?
**A.** 15%

**Q.** And the “treatment time that may also be effective” value (primary AML specimens; additional preliminary data, not shown)?
**A.** ≤ 5 min

**Q.** What about the “mean time to achieve ≧50% cell death” value (primary AML specimens; bulk leukemia blast populations, 17 primary specimens) of the same molecule?
**A.** 2 h

**Q.** What about the Rapid kinetics (primary AML specimens; cell death kinetics) of the same molecule?
**A.** Yes

**Q.** What about the “time within which most toxicity is evident” value (primary AML specimens; leukemia cells) of the same molecule?
**A.** 1 to 6 h

**Q.** What about the “Cytotoxic AML” value (primary AML specimens; primary AML specimens) of the same molecule?
**A.** Yes

**Q.** What about the “time of TDZD-8 exposure at which cell death was frequently evident” value (primary AML specimens; primary AML, bcCML, ALL and CLL specimens) of the same molecule?
**A.** ≤ 2 h

**Q.** What about the viability (primary AML specimens; three of 17 specimens, within 30 minutes) of the same molecule?
**A.** below 30%

**Q.** What about the IC50 (All other tumor lines) of the same molecule?
**A.** > 100 µM

**Q.** What about the IC50 (PKC) of the same molecule?
**A.** > 100 µM

**Q.** What about the inhibition at 20 µM (FLT3) of the same molecule?
**A.** 99%

**Q.** And the IC50 (FLT3; titration curve, FIG. 13C, read-out: in vitro IC50)?
**A.** 0.673 µM

**Q.** And the inhibition at 20 µM (PRKCI (PKC iota))?
**A.** 100%

**Q.** And the IC50 (PRKCI (PKC iota); [6])?
**A.** 5.5 µM

**Q.** And the inhibition at 20 µM (PRKCB1 (PKC beta I))?
**A.** 98%

**Q.** And the IC50 (PRKCB1 (PKC beta I); [6])?
**A.** 1.4 µM

**Q.** And the inhibition at 20 µM (PRKCD (PKC delta))?
**A.** 102%

**Q.** And the IC50 (PRKCD (PKC delta); [6])?
**A.** 1.1 µM

**Q.** What about the IC50 (PICA) of the same molecule?
**A.** > 100 µM

**Q.** What about the “effect on the engraftment of normal specimens” value [3] of the same molecule?
**A.** little to no effect

**Q.** And the “Cytotoxic Normal” value [4]?
**A.** No

**Q.** And the viability at 24 h, 20 μM [5]?
**A.** 79.5%

**Q.** What about the IC50 (CDK1/cyclin B) of the same molecule?
**A.** > 100 µM

**Q.** And the “mBBr staining (free thiol groups)” value (normal specimens)?
**A.** only slight changes in mBBr staining
